Measurements as given in PubChem BioAssay (NCI).
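Abbreviation: GI50, concentration required for 50% inhibition of growth. TGI marks complete inhibition of growth.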

Tests used:
Test in all cases: NCI tumour cell line growth inhibition, 384-well format
DU-145 prostate = system: DU-145 prostate
SK-OV-3 ovarian = system: SK-OV-3 ovarian
SF-295 CNS = system: SF-295 CNS
MDA-MB-435 melanoma = system: MDA-MB-435 melanoma
SN12C renal = system: SN12C renal
A549 NSCLC = system: A549 NSCLC
RXF 393 renal = system: RXF 393 renal
MDA-MB-468 breast = system: MDA-MB-468 breast
SNB-19 CNS = system: SNB-19 CNS
HCT-15 colon = system: HCT-15 colon
IGROV1 ovarian = system: IGROV1 ovarian
NCI-H226 lung = system: NCI-H226 lung
RPMI-8226 leukemia = system: RPMI-8226 leukemia
BT-549 breast = system: BT-549 breast
OVCAR-8 ovarian = system: OVCAR-8 ovarian
NCI-H23 lung = system: NCI-H23 lung
OVCAR-5 ovarian = system: OVCAR-5 ovarian
HT29 colon = system: HT29 colon
LOX IMVI melanoma = system: LOX IMVI melanoma
MALME-3M melanoma = system: MALME-3M melanoma
786-0 renal = system: 786-0 renal
T-47D breast = system: T-47D breast
SF-539 CNS = system: SF-539 CNS
K-562 leukemia = system: K-562 leukemia
OVCAR-4 ovarian = system: OVCAR-4 ovarian
MCF7 breast = system: MCF7 breast
M14 melanoma = system: M14 melanoma
UO-31 renal = system: UO-31 renal
SF-268 CNS = system: SF-268 CNS
NCI-H322M lung = system: NCI-H322M lung
SK-MEL-28 melanoma = system: SK-MEL-28 melanoma
SK-MEL-5 melanoma = system: SK-MEL-5 melanoma
MDA-MB-231 breast = system: MDA-MB-231 breast
U251 glioblastoma = system: U251 glioblastoma
HCT-116 colon = system: HCT-116 colon
HL-60(TB) leukemia = system: HL-60(TB) leukemia
SK-MEL-2 melanoma = system: SK-MEL-2 melanoma
UACC-62 melanoma = system: UACC-62 melanoma
MOLT-4 leukemia = system: MOLT-4 leukemia
HOP-92 NSCLC = system: HOP-92 NSCLC
HOP-62 NSCLC = system: HOP-62 NSCLC
SR leukemia = system: SR leukemia
TK-10 renal = system: TK-10 renal
OVCAR-3 ovarian = system: OVCAR-3 ovarian
NCI/ADR-RES ovarian = system: NCI/ADR-RES ovarian
A498 renal = system: A498 renal
NCI-H460 NSCLC = system: NCI-H460 NSCLC
CAKI-1 renal = system: CAKI-1 renal
SW-620 colon = system: SW-620 colon
NCI-H522 lung = system: NCI-H522 lung
UACC-257 melanoma = system: UACC-257 melanoma
PC-3 prostate = system: PC-3 prostate
KM12 colon = system: KM12 colon
COLO 205 colon = system: COLO 205 colon
CCRF-CEM leukemia = system: CCRF-CEM leukemia
ACHN renal = system: ACHN renal
HCC-2998 colon = system: HCC-2998 colon

## C=Cc1c(C)c2cc3nc(cc4[nH]c(cc5nc(cc1[nH]2)C(C)=C5CCC(=O)O)c(CCC(=O)OC)c4C)[C@@]1(C)C3=CC=C(C(=O)OC)[C@H]1C(=O)OC
DU-145 prostate
  GI50: 2220 nM
  TGI: 5490 nM
SK-OV-3 ovarian
  GI50: 1920 nM
  TGI: 4730 nM
SF-295 CNS
  GI50: 1280 nM
  TGI: 2940 nM
MDA-MB-435 melanoma
  GI50: 2360 nM
  TGI: 5480 nM
SN12C renal
  GI50: 2880 nM
  TGI: 9350 nM
A549 NSCLC
  GI50: 1650 nM
  TGI: 4090 nM
RXF 393 renal
  GI50: 668 nM
  TGI: 2560 nM
MDA-MB-468 breast
  GI50: 750 nM
  TGI: 2670 nM
SNB-19 CNS
  GI50: 2760 nM
  TGI: 9040 nM
HCT-15 colon
  GI50: 1730 nM
  TGI: 3320 nM
IGROV1 ovarian
  GI50: 1930 nM
  TGI: 4730 nM
NCI-H226 lung
  GI50: 1480 nM
  TGI: 3360 nM
RPMI-8226 leukemia
  GI50: 1500 nM
  TGI: 2840 nM
BT-549 breast
  GI50: 1320 nM
  TGI: 3300 nM
OVCAR-8 ovarian
  GI50: 2090 nM
  TGI: 6680 nM
NCI-H23 lung
  GI50: 333 nM
  TGI: 1280 nM
OVCAR-5 ovarian
  GI50: 2490 nM
  TGI: 5930 nM
HT29 colon
  GI50: 1980 nM
  TGI: 4720 nM
LOX IMVI melanoma
  GI50: 2640 nM
  TGI: 4810 nM
MALME-3M melanoma
  GI50: 1660 nM
  TGI: 3920 nM
786-0 renal
  GI50: 2260 nM
  TGI: 6550 nM
T-47D breast
  GI50: 999 nM
  TGI: 6820 nM
SF-539 CNS
  GI50: 1650 nM
  TGI: 3220 nM
K-562 leukemia
  GI50: 1030 nM
  TGI: 9640 nM
OVCAR-4 ovarian
  GI50: 1250 nM
  TGI: 3610 nM
MCF7 breast
  GI50: 1940 nM
  TGI: 5760 nM
M14 melanoma
  GI50: 2280 nM
  TGI: 5230 nM
UO-31 renal
  GI50: 2330 nM
  TGI: 6210 nM
SF-268 CNS
  GI50: 1940 nM
  TGI: 5630 nM
NCI-H322M lung
  GI50: 1880 nM
  TGI: 4540 nM
SK-MEL-28 melanoma
  GI50: 1980 nM
  TGI: 4250 nM
SK-MEL-5 melanoma
  GI50: 1300 nM
  TGI: 2680 nM
MDA-MB-231 breast
  GI50: 1510 nM
  TGI: 4380 nM
U251 glioblastoma
  GI50: 1610 nM
  TGI: 3970 nM
HCT-116 colon
  GI50: 1280 nM
  TGI: 2770 nM
HL-60(TB) leukemia
  GI50: 1870 nM
  TGI: 3290 nM
SK-MEL-2 melanoma
  GI50: 1640 nM
  TGI: 3330 nM
UACC-62 melanoma
  GI50: 1880 nM
  TGI: 3630 nM
MOLT-4 leukemia
  GI50: 1230 nM
  TGI: 2490 nM
HOP-92 NSCLC
  GI50: 1920 nM
  TGI: 4320 nM
HOP-62 NSCLC
  GI50: 1700 nM
  TGI: 4160 nM
SR leukemia
  GI50: 579 nM
  TGI: 1850 nM
TK-10 renal
  GI50: 2400 nM
  TGI: 6190 nM
OVCAR-3 ovarian
  GI50: 1740 nM
  TGI: 3410 nM
NCI/ADR-RES ovarian
  GI50: 1910 nM
  TGI: 4630 nM
A498 renal
  GI50: 1780 nM
  TGI: 4060 nM
NCI-H460 NSCLC
  GI50: 1690 nM
  TGI: 3260 nM
CAKI-1 renal
  GI50: 2850 nM
  TGI: 7690 nM
SW-620 colon
  GI50: 3220 nM
  TGI: 9290 nM
NCI-H522 lung
  GI50: 1330 nM
  TGI: 3660 nM
UACC-257 melanoma
  GI50: 1640 nM
  TGI: 3870 nM
PC-3 prostate
  GI50: 1930 nM
  TGI: 4240 nM
KM12 colon
  GI50: 1760 nM
  TGI: 3660 nM
COLO 205 colon
  GI50: 2450 nM
  TGI: 5950 nM
CCRF-CEM leukemia
  GI50: 1190 nM
  TGI: 2710 nM
ACHN renal
  GI50: 2460 nM
  TGI: 6830 nM
HCC-2998 colon
  GI50: 1540 nM
  TGI: 3110 nM
